Measurements: publication PMC8315922, “In Vitro Identification and In Vivo Confirmation of Inhibitors for Sweet Potato Chlorotic Stunt Virus RNA Silencing Suppressor, a Viral RNase III” (Journal of Virology, 2021)
Like-named read-outs stand apart in the source and are kept apart here.

Columns and labels:
CSR3 = target: T1, CSR3 (Sweet potato chlorotic stunt virus, UniProt Q8JJW8); assay: Binding affinity assay using MST; details: for Comments: MST behaviour of compound (V-shape response, fluorescence quenching, interference, aggregator); for Binding (Yes/No): MST binding call; for Binding (Yes/No) / Response Amplitude: Table S4; for Response Amplitude: MST response amplitude
T1 sequence (Q8JJW8 1-228): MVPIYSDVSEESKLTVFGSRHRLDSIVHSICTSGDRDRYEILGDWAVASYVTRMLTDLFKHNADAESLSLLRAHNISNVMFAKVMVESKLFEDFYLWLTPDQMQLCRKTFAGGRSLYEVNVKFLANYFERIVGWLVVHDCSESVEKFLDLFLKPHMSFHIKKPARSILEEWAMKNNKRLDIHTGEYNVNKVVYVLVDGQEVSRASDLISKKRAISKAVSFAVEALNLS
Protocol: Binding affinity assays were first carried out with the 99 commercial compounds using the MST method.
The labeled-protein solution containing 500 nM proteins and 40 nM dye was prepared in PBS buffer with 2% dimethyl sulfoxide (DMSO) for the assay. The 12 concentrations for each compound were obtained by 2-fold serial dilutions (0.2 μM to 400 μM). […] Two independent experiments were carried out in premium coated capillaries (NanoTemper, Munich, Germany) using a Monolith NT.Automated instrument (NanoTemper) with the power set at high (80%), the light-emitting diode (LED) power (pico red) set at 5%, and the on-time set at 20 s. The dissociation constant (Kd) was determined using the MO.Affinity Analysis program (NanoTemper).

SPCSV = assay: Virus accumulation (RT-qPCR of coat protein RNA) in coinfected sweetpotato plants grown in culture medium: SPCSV; assay type: in vivo, Sweet potato chlorotic stunt virus; details: for SPCSV_FC (fold change of viral accumulation): 50 μM in culture medium, 28 days, relative to DMSO control; for SPCSV accumulation reduced / viral titer SPCSV (log2 fold change relative to controls): plants in culture medium, 50 μM
Protocol: (§1) Since tests in culture medium consume smaller amounts of compounds and can be carried out under relatively controlled conditions, sweetpotato plants coinfected with SPCSV and SPFMV were grown in medium supplemented with one of the 30 inhibitor candidates at a concentration of 50 μM. Their effects on plant growth were monitored by imaging the plants once a week. […] In addition, virus accumulation was quantified by measuring the relative abundance of the transcripts encoding viral coat proteins using RT-qPCR ([32]). The effect of individual compounds on virus accumulation was estimated by comparing treated and control plants.
(§2) Sweetpotato plants cultivar 'Huachano' (accession CIP420065) were side-graft inoculated with both SPFMV (East African strain isolate Nam1) and SPCSV-Ug (East African serotype 2) as described previously ([62]). Plantlets were propagated by taking single-node stems grown in a plant culture medium ([33]). Next, plantlets with newly formed roots were transferred to glass tubes (18 by 150 mm) containing 10 ml of medium supplemented with either 50 μM compound (diluted in DMSO; final DMSO concentration, 0.1%) or only 0.1% DMSO as a control. For plant experiments in soil, plantlets were transferred to pots (6 by 6 by 10 cm) filled with a mixture of sand, humus, and washed soil. After 1 week, plants were treated by foliar spraying using either individual compounds at a single concentration (10 μM) (treatment) or water (control/mock) twice a week for 1 month. All plants were grown at 22°C with 60% humidity and a 16-h light/8-h dark photoperiod for 28 days in culture medium and for 41 days in soil. The Finnish National Plant Phenotyping Infrastructure (NaPPI) was used to monitor plant viral disease symptoms as described in our previous study ([33]). Four compounds were tested with the phenotyping platform in two independent batches, each of which included five biological replicates.
(§3) Leaf samples were collected from plants grown in culture medium or soil for 28 or 41 days, respectively, and frozen in liquid nitrogen. Total RNA was extracted using the Spectrum plant total RNA kit (Sigma-Aldrich). First-strand cDNA was synthesized using the Transcriptor first-strand cDNA synthesis kit (Roche, Basel, Switzerland). […] All RT-qPCR experiments were conducted in triplicate on three and five biological replicates from plants grown in culture medium and soil, respectively. The primer list can be found in our previous study ([33]).
(§4) For HTS, the activity of CSR3 was calculated by measuring the change in fluorescence as a function of the reaction time using MARS Data Analysis software (BMG Labtech). To evaluate the CSR3 inhibition efficiency of individual compounds, the PI of each compound was calculated using the slope values for the sample, positive control, and negative control according to the following equation: PI = 100 × [1 − (sample − positive)/(negative − positive)]%. IC50 and DSS values were calculated using concentration-specific PI values according to a previous study ([31]). Relative gene expression was calculated using the classical 2^−ΔΔ^CT method ([63]).

sweetpotato plants = details: 50 μM in culture medium
[1] = target: CSR3 (RNase III of SPCSV) (Sweet potato chlorotic stunt virus, UniProt Q8JJW8); assay: Kinetic-based FRET dose-response assay (IC50, DSS); assay type: biochemical; details: for DSS Comm 1 / DSS FIMM1 / DSS FIMM 2: drug sensitivity score; for DSS Comm 1: repeat Comm 1; for DSS FIMM1: repeat FIMM 1; for DSS FIMM 2: repeat FIMM 2
Protocol: A dose-response assay with six concentrations (1.25 nM to 50 μM) was carried out in three independent experiments, which included two tests with the 112 selected FIMM compounds (i.e., compounds prepared by the HTB-FIMM) and one test using the newly ordered commercial compounds (99 of the 112 compounds, i.e., compounds prepared by a second supplier). A dose-response curve was generated for each compound based on PI values as a function of the concentration.
The HTS assay was designed based on FRET using a 22-bp siRNA (forward sequence, […]; reverse sequence, […]) with a 2-nucleotide (nt) 3′ overhang labeled with the fluorescent dye 6-carboxyfluorescein (FAM) and a black hole quencher (BHQ1) on the sense strand (Metabion, Munich, Germany). Screening was initially carried out at one concentration (10 μM) in a 20-μl reaction buffer. […] All reaction mixtures contained 50 nM CSR3 and 375 nM labeled siRNA in 384-well black flat-bottom microplates (Corning, NY, USA) and were prepared using a BioTek MultiFlo FX dispenser with single-channel random access dispenser cassettes (BioTek, Winooski, VT, USA). The plates were read with a PHERAstar FS reader (BMG Labtech, Ortenberg, Germany).
as §4

SPFMV = assay: Virus accumulation (RT-qPCR of coat protein RNA) in coinfected sweetpotato plants grown in culture medium: SPFMV; assay type: in vivo, Sweet potato feathery mottle virus; details: for SPFMV_FC (fold change of viral accumulation): 50 μM in culture medium, 28 days, relative to DMSO control; for SPFMV accumulation reduced / viral titer SPFMV (log2 fold change relative to controls): plants in culture medium, 50 μM
Protocol: as §1, §2, §3, §4

[2] = repeat Comm 1 (commercial compounds), 1.25 nM to 50 μM, unit inferred, numbers match nM, read-out: IC50 Comm 1
[3] = repeat FIMM 1 (FIMM library compounds), 1.25 nM to 50 μM, unit inferred, numbers match nM (cf. Fig 5A), read-out: IC50 FIMM1
[4] = repeat FIMM 2 (FIMM library compounds), 1.25 nM to 50 μM, unit inferred, numbers match nM, read-out: IC50 FIMM 2
[5] = kinetic-based HTS, Fig 5A summary
[6] = read-out: IC50 Comm 1, repeat Comm 1 (commercial compounds), 1.25 nM to 50 μM, unit inferred, numbers match nM
[7] = read-out: IC50 FIMM 2, repeat FIMM 2 (FIMM library compounds), 1.25 nM to 50 μM, unit inferred, numbers match nM

Row | Structure (SMILES) | Comments (CSR3) | Binding (Yes/No) (CSR3) | Response Amplitude (CSR3) | SPCSV_FC (fold change of viral accumulation) (SPCSV) | Toxicity (sweetpotato plants) | DSS Comm 1 [1] | DSS FIMM1 [1] | DSS FIMM 2 [1] | IC50 [1, 2] | IC50 [1, 3] | IC50 [1, 4] | SPFMV_FC (fold change of viral accumulation) (SPFMV) | SPCSV accumulation reduced (SPCSV) | viral titer SPCSV (log2 fold change relative to controls) (SPCSV) | DSS [1, 5] | IC50 [1, 5] | IC50 [1, 6] | IC50 [1, 7] | SPFMV accumulation reduced (SPFMV) | viral titer SPFMV (log2 fold change relative to controls) (SPFMV)
1 | O=C1c2c(O)ccc(O)c2C(=O)c2c(NCCNCCO)ccc(NCCNCCO)c21 [FIMM000490] | Interference | No | 0 | 0.2453 | no | 16.9 | 14.9 | 15.5 | 1200 nM | 1810 nM | 1640 nM | 1.747 |  |  |  |  |  |  |  | 
2 | O=C(O)c1ccc(C2Nc3c(Br)cccc3C3C=CCC32)cc1 (centres unmarked) [FIMM022230] |  | No | 68 | 0.08458 | no | 5.4 | 13.8 | 14.3 |  | 1860 nM |  | 0.2613 | approximately 8 fold | −3.56 | 13.8 | ~1860 nM | 12000 nM | 1550 nM | ~4 fold | −1.93
3 | Cc1ccc(C2Nc3ccc(C(=O)O)cc3C3C=CCC32)cc1 (centres unmarked) [FIMM031755] |  | No | 0 | 0.5163 | no | 7.7 | 15.9 | 16.2 |  |  |  | 0.5653 | ~2 fold | −0.95 | 15.9 | ~1270 nM | 7380 nM | 1240 nM | ~2 fold | −0.82
4 | COc1cc(C=C2C(=O)NC(=S)NC2=O)ccc1OCc1ccccc1[N+](=O)[O-] [FIMM101864] | Aggregator | No | 0 | 0.5034 |  | 6.4 | 11.2 | 8 | 1690 nM | 3850 nM | 7240 nM | 1.376 |  |  |  |  |  |  |  | 
